Patent US20220386606A1, “SPECIFICALLY SUBSTITUTED 3-PHENYL-5-SPIROCYCLOPENTYL-3-PYRROLIN-2-ONES AND THEIR USE AS HERBICIDES” (Bayer Aktiengesellschaft, priority 2019, published 2022)

Tests used:
ALOMY [1] = test: Post-emergence herbicidal action against ALOMY; format: in vivo, Alopecurus myosuroides; details: 80 g/ha, visual assessment after about 3 weeks
Method in brief: (§1)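 Greenhouse post-emergence test; one-leaf stage (2–3 wk post-sowing), sandy loam. Spray: WP/EC in water, 600–800 l/ha, 0.2% wetting agent, onto green parts. Visual rating ~3 wk later, % vs untreated (100% = dead, 0% = like control).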

AVEFA [2] = test: Post-emergence herbicidal action against AVEFA; format: in vivo, Avena fatua; details: 80 g/ha, visual assessment after about 3 weeks
Method in brief: as §1

DIGSA [3] = test: Post-emergence herbicidal action against DIGSA; format: in vivo, Digitaria sanguinalis; details: 80 g/ha, visual assessment about 3 weeks after treatment vs untreated controls
Method in brief: as §1

ABUTH [4] = test: Post-emergence herbicidal action against ABUTH; format: in vivo, Abutylon threophrasti; details: 80 g/ha, visual assessment about 3 weeks after treatment vs untreated controls
Method in brief: as §1

HORMU = test: Post-emergence herbicidal action against HORMU; format: in vivo, Hordeum murinum; details: 80 g/ha, visual assessment about 3 weeks after treatment vs untreated controls
Method in brief: as §1

LOLRI [5] = test: Post-emergence herbicidal action against LOLRI; format: in vivo, Lolium rigidum; details: 80 g/ha, visual assessment about 3 weeks after treatment vs untreated controls
Method in brief: as §1

SETVI [6] = test: Post-emergence herbicidal action against SETVI; format: in vivo, Setaria viridis; details: 80 g/ha, visual assessment about 3 weeks after treatment vs untreated controls
Method in brief: as §1

ECHCG [7] = test: Post-emergence herbicidal action against ECHCG; format: in vivo, Echinochloa crus-galli; details: 80 g/ha, visual assessment about 3 weeks after treatment vs untreated controls
Method in brief: as §1

AMARE [8] = test: Post-emergence herbicidal action against AMARE; format: in vivo, Amaranthus retroflexus; details: 80 g/ha, visual assessment about 3 weeks after treatment vs untreated controls
Description: (§2) Seeds of monocotyledonous and dicotyledonous weed and crop plants are laid out in sandy loam soil in wood-fiber pots, covered with soil and cultivated in a greenhouse under good growth conditions. 2 to 3 weeks after sowing, the test plants are treated at the one-leaf stage. The compounds of the invention, formulated in the form of wettable powders (WP) or as emulsion concentrates (EC), are then sprayed onto the green parts of the plants as aqueous suspension or emulsion at a water application rate equating to 600 to 800 l/ha with addition of 0.2% wetting agent. After the test plants have been left to stand in the greenhouse under optimal growth conditions for about 3 weeks, the action of the preparations is assessed visually in comparison to untreated controls (herbicidal action in percent (%): 100% activity=the plants have died, 0% activity=like control plants).

ALOMY [9] = test: Pre-emergence herbicidal action against ALOMY; format: in vivo, Alopecurus myosuroides; details: 320 g/ha, scored visually after 3 weeks vs untreated controls
Method in brief: (§3)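 Herbicidal activity is expressed as percent visual damage compared with untreated controls, where 100% means dead plants, assessed 3 weeks after pre-emergence treatment of sown, soil-covered seeds in sandy loam under greenhouse conditions.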

MATIN = test: Pre-emergence herbicidal action against MATIN; format: in vivo; details: 320 g/ha
Method in brief: as §3

VIOTR = test: Pre-emergence herbicidal action against VIOTR; format: in vivo, Viola tricolor; details: 320 g/ha
Method in brief: as §3

LOLRI [10] = test: Pre-emergence herbicidal action against LOLRI (Table 8, titled post-emergence at 320 g/ha); format: in vivo, Lolium rigidum; details: table stands in the pre-emergence section
Method in brief: as §3

DIGSA [11] = test: Pre-emergence herbicidal action against DIGSA; format: in vivo, Digitaria sanguinalis; details: 320 g/ha, scored visually after 3 weeks vs untreated controls
Method in brief: as §3

VERPE [12] = test: Post-emergence herbicidal action against VERPE; format: in vivo, Veronica persica; details: 80 g/ha, visual assessment about 3 weeks after treatment vs untreated controls
Description: as §2

VERPE [13] = test: Pre-emergence herbicidal action against VERPE; format: in vivo, Veronica persica; details: 320 g/ha
Method in brief: as §3

SETVI [14] = test: Pre-emergence herbicidal action against SETVI; format: in vivo, Setaria viridis; details: 320 g/ha, scored visually after 3 weeks vs untreated controls
Method in brief: as §3

ECHCG [15] = test: Pre-emergence herbicidal action against ECHCG; format: in vivo, Echinochloa crus-galli; details: 320 g/ha, scored visually after 3 weeks vs untreated controls
Method in brief: as §3

AVEFA [16] = test: Pre-emergence herbicidal action against AVEFA; format: in vivo, Avena fatua; details: 320 g/ha, scored visually after 3 weeks vs untreated controls
Method in brief: as §3

AMARE [17] = test: Pre-emergence herbicidal action against AMARE; format: in vivo, Amaranthus retroflexus; details: 320 g/ha
Method in brief: as §3

POLCO = test: Pre-emergence herbicidal action against POLCO; format: in vivo, Polygonum convolvulus; details: 320 g/ha
Method in brief: as §3

ABUTH [18] = test: Pre-emergence herbicidal action against ABUTH; format: in vivo, Abutylon threophrasti; details: 320 g/ha
Method in brief: as §3

| Structure (SMILES) | Post-emergence action against ALOMY in % (ALOMY [1]) [%] | Post-emergence action against AVEFA in % (AVEFA [2]) [%] | Post-emergence action against DIGSA in % (DIGSA [3]) [%] | Post-emergence action against ABUTH in % (ABUTH [4]) [%] | Post-emergence action against LOLRI in % (LOLRI [5]) [%] | Post-emergence action against SETVI in % (SETVI [6]) [%] | Post-emergence action against ECHCG in % (ECHCG [7]) [%] | Post-emergence action against AMARE in % (AMARE [8]) [%] | Pre-emergence action against ALOMY in % (ALOMY [9]) [%] | Pre-emergence action against VIOTR in % (VIOTR) [%] | Pre-emergence herbicidal action against LOLRI in % (LOLRI [10]) [%] | Pre-emergence action against DIGSA in % (DIGSA [11]) [%] | Pre-emergence action against VERPE in % (VERPE [13]) [%] | Pre-emergence action against SETVI in % (SETVI [14]) [%] | Pre-emergence action against ECHCG in % (ECHCG [15]) [%] | Pre-emergence action against AVEFA in % (AVEFA [16]) [%] | Pre-emergence action against AMARE in % (AMARE [17]) [%] | Pre-emergence action against ABUTH in % (ABUTH [18]) [%] | also measured |
| --- | --- | --- | --- | --- | --- | --- | --- | --- | --- | --- | --- | --- | --- | --- | --- | --- | --- | --- | --- |
| CC#Cc1cc(C)c(C2=C(OC(=O)OCC)C3(CCC(COC)C3)NC2=O)c(Cl)c1 (stereo not drawn) [Example P-18] | 100 | 100 | 100 | 80 | 100 | 100 | 100 | 80 |  |  |  |  |  |  |  |  |  |  | Post-emergence action against HORMU in % (HORMU): 100% |
| CC#Cc1cc(C)c(C2=C(O)C3(CCC(COCCC)C3)NC2=O)c(Cl)c1 (stereo not drawn) [Example I-71] | 90 | 80 | 90 |  | 90 | 100 | 90 |  | 100 | 100 | 100 | 100 | 90 | 100 | 100 | 80 |  |  | Pre-emergence action against MATIN in % (MATIN): 90%; Post-emergence action against VERPE in % (VERPE [12]): 80% |
| CC#Cc1cc(C)c(C2=C(OC(=O)OCC)C3(CCC(COC)C3)NC2=O)c(Br)c1 (stereo not drawn) [Example P-31] | 90 | 100 | 100 |  | 100 | 100 | 100 | 80 | 100 | 100 | 100 | 100 | 90 | 100 | 100 | 100 | 100 | 90 | Pre-emergence action against POLCO in % (POLCO): 90% |
| CC#Cc1cc(C)c(C2=C(O)C3(CCC(COC)C3)NC2=O)c(F)c1 (stereo not drawn) [Example I-36] | 100 | 100 | 100 | 80 | 100 |  | 100 | 80 | 100 | 80 | 100 | 100 |  | 100 | 100 | 80 | 90 |  |  |
| CC#Cc1cc(C)c(C2=C(OC(=O)C(C)C)C3(CCC(COC)C3)NC2=O)c(F)c1 (stereo not drawn) [Example P-58] | 100 | 90 | 100 | 80 | 100 |  | 100 | 80 | 100 | 100 | 100 | 100 |  | 100 | 100 | 90 | 90 | 80 |  |
| C=CCOCC1CCC2(C1)NC(=O)C(c1c(C)cc(C#CC)cc1Br)=C2OC(=O)OCC (stereo not drawn) [Example P-88] | 100 |  | 90 |  | 100 | 100 | 100 | 80 | 100 | 100 | 100 | 100 | 100 | 100 | 100 | 90 |  | 80 |  |
| C=CCOCC1CCC2(C1)NC(=O)C(c1c(C)cc(C#CC)cc1Cl)=C2O (stereo not drawn) [Example I-44] | 100 | 80 | 100 |  | 80 | 100 | 100 | 80 | 100 | 100 | 100 | 100 | 80 | 100 | 90 | 90 | 100 | 80 | Pre-emergence action against MATIN in % (MATIN): 80%; Pre-emergence action against POLCO in % (POLCO): 100% |
